From patent US20260285816A1, “Piperazinyl-Modified Quinazolinyl-Aryl Urea Derivative, And Preparation Method And Use Thereof” (Guangxi Normal University, priority 2025, published 2026)
Where a name gives a salt, the structure may show the parent alone. Read-outs that look alike come from different tables or passages of the source.

Columns and labels:
Format in all cases: cell-based, human
5637 cells = experiment: CCK-8 anti-proliferative assay, 5637; settings: Table 16, comparative compounds 8-1 to 8-23, co-incubated 48 h, read-out: Anti-proliferative activity (IC50 ± standard deviation) 5637
Method: (§1) The obtained quinazolinyl-aryl urea derivatives were screened for compounds with optimal activity using the following method.
(§2) Experimental Procedure for Anti-Proliferative Activity Evaluation: The CCK-8 assay was employed. Cells in logarithmic growth phase were harvested, adjusted to appropriate density, and uniformly seeded into 96-well plates using a multichannel pipette (180 μL cell suspension containing complete medium per well, 5,000 cells/well). Blank control wells (containing basal medium, CCK-8 solution, and DMSO only) were set. Cells were incubated at 37° C. under 5% CO2. After 70% confluency was reached, test compounds (target compounds/positive controls) were added at final concentrations of 1, 2, 4, 6, 8, 12, 16, 24, and 30 μM (3 repeated wells per concentration). Compounds were pre-dissolved in DMSO, sterilized, and diluted with medium before adding 20 μL/well. After co-incubation for designated durations, 10 μL CCK-8 solution was added per well followed by 1-4 h incubation (different cells have different incubation times). […] Inhibition rates were calculated as: (ODcontrol−ODtreatment)/ODcontrol×100%. Median inhibitory concentrations (IC50 values) were derived using Origin v8.0 software.

MCF-7 cells = experiment: CCK-8 anti-proliferative assay, MCF-7; settings: Table 16, comparative compounds 8-1 to 8-23, co-incubated 48 h, read-out: Anti-proliferative activity (IC50 ± standard deviation) MCF-7
Method: as §1, §2

Hep G2 cells = experiment: CCK-8 anti-proliferative assay, Hep G2
Excerpt: (§3) The obtained quinazolinyl-aryl urea derivatives were screened for compounds with optimal activity using the following method. All cell lines employed in this experiment were of human origin, including: bladder cancer cells: J82, UM-UC-3, T24, 5637, pancreatic cancer cells: BxPC-3, PANC-1, osteosarcoma cells: 143B, MG-63, cervical cancer cells: HeLa, breast cancer cells: MCF-7, NSCLC cells: A549, hepatoblastoma cells: Hep G2, and ovarian cancer cells: SK-OV-3, as well as normal cell lines: immortalized ureteral epithelial cells (SV-HUC-1), embryonic lung fibroblasts (WI-38).
(§4) Experimental Procedure for Anti-Proliferative Activity Evaluation: The CCK-8 assay was employed. Cells in logarithmic growth phase were harvested, adjusted to appropriate density, and uniformly seeded into 96-well plates using a multichannel pipette (180 μL cell suspension containing complete medium per well, 5,000 cells/well). Blank control wells (containing basal medium, CCK-8 solution, and DMSO only) were set. Cells were incubated at 37° C. under 5% CO2. After 70% confluency was reached, test compounds (target compounds/positive controls) were added at final concentrations of 1, 2, 4, 6, 8, 12, 16, 24, and 30 μM (3 repeated wells per concentration). Compounds were pre-dissolved in DMSO, sterilized, and diluted with medium before adding 20 μL/well. After co-incubation for designated durations, 10 μL CCK-8 solution was added per well followed by 1-4 h incubation (different cells have different incubation times). The reaction was terminated, and OD (optical density) values at 450 nm were measured using a microplate reader. Inhibition rates were calculated as: (ODcontrol−ODtreatment)/ODcontrol×100%. Median inhibitory concentrations (IC50 values) were derived using Origin v8.0 software.

A549 cells = experiment: CCK-8 anti-proliferative assay, A549; settings: Table 16, comparative compounds 8-1 to 8-23, co-incubated 48 h, read-out: Anti-proliferative activity (IC50 ± standard deviation) A549
Method: as §1, §2

T24 cells = experiment: CCK-8 anti-proliferative assay, T24; settings: Table 16, comparative compounds 8-1 to 8-23, co-incubated 48 h, read-out: Anti-proliferative activity (IC50 ± standard deviation) T24
Excerpt: as §3, §4

BxPC-3 cells = experiment: CCK-8 anti-proliferative assay, BxPC-3; settings: Homo sapiens, BXPC-3; Table 7; co-incubated 48 h; read-out: Anti-proliferative activity (IC50 ± standard deviation) BxPC-3
Excerpt: as §3, §4

PANC-1 cells = experiment: CCK-8 anti-proliferative assay, PANC-1; settings: Homo sapiens, PANC-1; Table 7; co-incubated 48 h; read-out: Anti-proliferative activity (IC50 ± standard deviation) PANC-1
Excerpt: as §3, §4

[1] = Homo sapiens, HepG2, Table 16, comparative compounds 8-1 to 8-23, co-incubated 48 h, read-out: Anti-proliferative activity (IC50 ± standard deviation) Hep G2
[2] = Table 16, comparative compounds 8-1 to 8-23, co-incubated 48 h, read-out: Anti-proliferative activity (IC50 ± standard deviation) Hep G2

SMILES | IC50 (5637 cells; Homo sapiens) [µM] | IC50 (MCF-7 cells; Homo sapiens, MCF7) [µM] | IC50 (Hep G2 cells; [1]) [µM] | IC50 (A549 cells; Homo sapiens, A549) [µM] | IC50 (T24 cells; Homo sapiens, T-24) [µM] | IC50 (Hep G2 cells; Homo sapiens, HepG2, read-out: IC50 on Hep G2) [µM] | IC50 (5637 cells) [µM] | IC50 (MCF-7 cells) [µM] | IC50 (Hep G2 cells; [2]) [µM] | IC50 (A549 cells) [µM] | IC50 (T24 cells) [µM] | IC50 (BxPC-3 cells) [µM] | IC50 (PANC-1 cells) [µM]
COc1cc2ncnc(NCc3cccc(NC(=O)Nc4ccccc4)c3)c2cc1OCCCC(=O)N1CCC(N2CCOCC2)CC1 [Compound 8-1, reference compound] | 26.2 ± 0.98 | 18.3 ± 0.53 | 28.2 ± 0.49 | > 30 | 18.8 ± 0.49 | – | – | – | – | – | – | – | –
COc1cc2ncnc(NCc3cccc(NC(=O)Nc4ccccc4C)c3)c2cc1OCCCC(=O)N1CCC(N2CCOCC2)CC1 [Compound 8-2, reference compound] | 25.9 ± 1.32 | 16.5 ± 0.64 | > 30 | > 30 | > 30 | – | – | – | – | – | – | – | –
COc1cc2ncnc(NCc3cccc(NC(=O)Nc4ccc(C)cc4)c3)c2cc1OCCCC(=O)N1CCC(N2CCOCC2)CC1 [Compound 8-3, reference compound] | > 30 | 23.2 ± 0.35 | > 30 | 24.1 ± 0.95 | 20.6 ± 0.68 | – | – | – | – | – | – | – | –
COc1cc2ncnc(NCc3cccc(NC(=O)Nc4ccc(C)cc4C)c3)c2cc1OCCCC(=O)N1CCC(N2CCOCC2)CC1 [Compound 8-4, reference compound] | 14 ± 0.66 | 18.5 ± 0.63 | > 30 | 22.2 ± 1.15 | 27.1 ± 0.33 | – | – | – | – | – | – | – | –
COc1cc2ncnc(NCc3cccc(NC(=O)Nc4cc(C)cc(C)c4)c3)c2cc1OCCCC(=O)N1CCC(N2CCOCC2)CC1 [Compound 8-5, reference compound] | 21.7 ± 0.51 | 21.3 ± 0.42 | > 30 | 21 ± 0.87 | 23.2 ± 0.54 | – | – | – | – | – | – | – | –
CCc1ccccc1NC(=O)Nc1cccc(CNc2ncnc3cc(OC)c(OCCCC(=O)N4CCC(N5CCOCC5)CC4)cc23)c1 [Compound 8-6, reference compound] | 27.5 ± 0.94 | > 30 | > 30 | > 30 | 19.4 ± 0.44 | – | – | – | – | – | – | – | –
CCc1cccc(CC)c1NC(=O)Nc1cccc(CNc2ncnc3cc(OC)c(OCCCC(=O)N4CCC(N5CCOCC5)CC4)cc23)c1 [Compound 8-7, reference compound] | 13.9 ± 0.68 | > 30 | 24.2 ± 0.53 | > 30 | 18.6 ± 0.53 | – | – | – | – | – | – | – | –
COc1cc2ncnc(NCc3cccc(NC(=O)Nc4ccc(C(C)C)cc4)c3)c2cc1OCCCC(=O)N1CCC(N2CCOCC2)CC1 [Compound 8-8, reference compound] | 7.6 ± 0.18 | 10 ± 0.19 | 17.7 ± 0.46 | 18.3 ± 0.29 | 7.73 ± 0.23 | – | – | – | – | – | – | – | –
COc1cc2ncnc(NCc3cccc(NC(=O)Nc4ccc(C(C)(C)C)cc4)c3)c2cc1OCCCC(=O)N1CCC(N2CCOCC2)CC1 [Compound 8-9, reference compound] | 6.25 ± 0.06 | 6.55 ± 0.13 | 12.2 ± 0.17 | 12.5 ± 0.37 | 4.54 ± 0.04 | 12.2 ± 0.17 | – | – | – | – | – | – | –
COc1ccccc1NC(=O)Nc1cccc(CNc2ncnc3cc(OC)c(OCCCC(=O)N4CCC(N5CCOCC5)CC4)cc23)c1 [Compound 8-10, reference compound] | 16.9 ± 0.64 | 19.3 ± 0.56 | 28.8 ± 0.58 | > 30 | 18.7 ± 0.38 | – | – | – | – | – | – | – | –
COc1cc2ncnc(NCc3cccc(NC(=O)Nc4ccc(F)cc4)c3)c2cc1OCCCCCCN1CCN(CCN2CCOCC2)CC1 [Compound 8-11, reference compound] | – | – | – | – | – | – | 17.9 ± 0.33 | 18.3 ± 0.43 | > 30 | > 30 | 23.3 ± 1.82 | – | –
COc1cc2ncnc(NCc3cccc(NC(=O)Nc4ccc(F)cc4)c3)c2cc1OCCCC(=O)N1CCC(N2CCOCC2)CC1 [Compound 8-13, reference compound] | 13.9 ± 0.43 | 21.5 ± 0.47 | > 30 | > 30 | 19.5 ± 0.27 | – | – | – | – | – | – | – | –
COc1cc2ncnc(NCc3cccc(NC(=O)Nc4ccccc4Cl)c3)c2cc1OCCCC(=O)N1CCC(N2CCOCC2)CC1 [Compound 8-14, reference compound] | 28.9 ± 0.53 | 18.6 ± 0.35 | > 30 | 20.2 ± 0.92 | 23.1 ± 0.73 | – | – | – | – | – | – | – | –
COc1cc2ncnc(NCc3cccc(NC(=O)Nc4ccc(Cl)cc4)c3)c2cc1OCCCC(=O)N1CCC(N2CCOCC2)CC1 [Compound 8-15, reference compound] | 14 ± 0.72 | 16.8 ± 0.32 | > 30 | 13.8 ± 0.35 | 19.1 ± 0.53 | – | – | – | – | – | – | – | –
COc1cc2ncnc(NCc3cccc(NC(=O)Nc4c(Cl)cc(Cl)cc4Cl)c3)c2cc1OCCCC(=O)N1CCC(N2CCOCC2)CC1 [Compound 8-16, reference compound] | > 30 | 15.9 ± 0.62 | > 30 | > 50 | > 30 | – | – | – | – | – | – | – | –
COc1cc2ncnc(NCc3cccc(NC(=O)Nc4ccc(C(F)(F)F)cc4)c3)c2cc1OCCCC(=O)N1CCC(N2CCOCC2)CC1 [Compound 8-18, reference compound] | 13.1 ± 0.24 | 13.2 ± 0.39 | > 30 | 18.8 ± 0.59 | 19.6 ± 0.45 | – | – | – | – | – | – | – | –
COc1cc2ncnc(NCc3cccc(NC(=O)Nc4ccc(F)c(C(F)(F)F)c4)c3)c2cc1OCCCC(=O)N1CCC(N2CCOCC2)CC1 [Compound 8-19, reference compound] | 17.9 ± 0.45 | 22.4 ± 0.82 | > 30 | 16.1 ± 0.71 | 26.2 ± 0.94 | – | – | – | – | – | – | – | –
COc1cc2ncnc(NCc3cccc(NC(=O)Nc4ccccc4Cl)c3)c2cc1OCCCCCCN1CCC(CN2CCN(c3ccccn3)CC2)CC1 [Compound 8-20, reference compound] | – | – | – | – | – | – | 14.1 ± 0.29 | 20.5 ± 0.38 | > 30 | 22.4 ± 1.01 | 18.4 ± 0.81 | – | –
COc1ccc(NC(=O)Nc2cccc(CNc3ncnc4cc(OC)c(OCCCCCCN5CCC(CN6CCN(c7ccccn7)CC6)CC5)cc34)c2)cc1 [Compound 8-21, reference compound] | – | – | – | – | – | – | 6.61 ± 0.07 | 12.2 ± 0.32 | 14.1 ± 0.2 | 11.9 ± 0.23 | 5.42 ± 0.05 | – | –
COc1cc2ncnc(NCc3cccc(NC(=O)NCc4ccccc4)c3)c2cc1OCCCC(=O)N1CCC(N2CCOCC2)CC1 [Compound 8-23, reference compound] | 26.8 ± 0.63 | 23.1 ± 0.92 | > 30 | > 30 | > 30 | – | – | – | – | – | – | – | –
C#Cc1cccc(Nc2ncnc3cc(OCCOC)c(OCCOC)cc23)c1 [Erlo, erlotinib hydrochloride, reference compound] | – | – | – | – | – | – | – | – | – | – | – | 18.3 ± 1.46 | 27.4 ± 1.77
